Measured values reported in US20240173333A1, “Treating Alagille Syndrome (ALGS)” (priority 2022, published 2024).
Converted amounts (≈) assume the structure as drawn.

Legend:
[1] = tested on: patients with Alagille syndrome (ALGS); assay: Pooled ASSERT and ASSERT-EXT: TEAEs; assay type: in vivo, human
Experimental: (§1) In the completed 24-week ASSERT study, patients with ALGS with history of significant pruritus and elevated serum BAs were randomized 2:1 to once-daily odevixibat 120 μg/kg or placebo, respectively. Patients who completed ASSERT could enter ASSERT-EXT, an ongoing, 72-week open-label extension study in which all patients receive odevixibat 120 μg/kg/day. This pooled analysis included all odevixibat-treated patients from ASSERT and/or ASSERT-EXT and spans from patients' first dose of odevixibat to a data cut-off of Sep. 9, 2022. Assessments over up to 36 weeks of treatment included change in observer-reported scratching scores and sleep parameters, as well as levels of serum BAs, autotaxin (a proposed meditator of pruritus), and 7 alpha-hydroxy-4-cholesten-3-one (C4; a marker of bile acid synthesis). Safety evaluations included assessment of alanine aminotransferase (ALT), total bilirubin, and treatment-emergent adverse events (TEAEs).

[2] = tested on: patients with Alagille syndrome (ALGS); assay: ASSERT-EXT open-label extension: safety, TEAEs; assay type: in vivo, human
Experimental: ASSERT-EXT is a Phase 3, multi-center, open-label extension study designed to evaluate the long-term safety and efficacy of 120 μg/kg/day odevixibat in relieving pruritus in patients with ALGS. Patients who participated in the ASSERT trial (see Example 1) and met eligibility criteria for the ASSERT trial were eligible to participate. The duration of the treatment period is 72 weeks, followed by a 4-week Safety Follow-up Period. Clinic visits occur every 4 to 12 weeks. Patients who wish to continue receiving odevixibat after 72 weeks will have the opportunity to remain on treatment in an optional extension period with visits every 16 weeks until the drug is commercially available, provided continued use is supported by the risk-benefit profile, the patient has not been previously withdrawn or discontinued from the study, and the study is not terminated by the Sponsor. The 4-week Safety Follow-up Period will not occur for those who remain on treatment in the optional extension period.
Day 1 coincided with Week 24 in the ASSERT trial; however, if this was not possible due to logistic issues, patients enrolled in the ASSERT-EXT trial within 28 days of completion of the ASSERT trial. All patients in the ASSERT-EXT trial receive odevixibat 120 μg/kg/day. Two groups were analyzed up to an interim cut-off date of Sep. 9, 2022: treatment-naïve patients who received placebo in ASSERT (i.e., “placebo-odevixibat”) and patients who received odevixibat in ASSERT (i.e., “odevixibat-odevixibat”).
Safety Analysis. The primary safety analysis for this study included the incidence of total treatment emergent AEs (TEAEs) and TEAEs categorized by causality, severity, and seriousness assessments made by the investigator. Trends in safety were also evaluated for the following assessments: Physical examinations; Concomitant medications; Vital signs; Laboratory test results (including clinical chemistry, hematology, urinalysis, AFP, vitamins A, E, and 25-hydroxy vitamin D, and INR); Liver ultrasound and elastography (where available); and Discontinuations due to Aes.

[3] = tested on: patients with Alagille syndrome (ALGS); assay: Pooled ASSERT and ASSERT-EXT: observer-reported scratching scores; assay type: in vivo, human; conditions: for mean scratching score: pooled
Experimental: as §1

[4] = Solubility in water; assay type: physicochemical; conditions: pH 7, 37° C.
Excerpt: It is desirable that the use of organic solvents in the preparation of the formulation is avoided. In some embodiments, water is used as the solvent for the preparation of the formulation. […] Because of this low solubility in water, aqueous suspensions of odevixibat can contain larger agglomerates of odevixibat, which may lead to an uneven distribution of the active pharmaceutical ingredient on the cores, i.e., the cores may contain different amounts of odevixibat, which in turn impacts dose uniformity. Accordingly, in some embodiments, the aqueous suspension of odevixibat is homogeneous. In some embodiments, a homogeneous aqueous suspension of odevixibat is sprayed onto the cores.

[5] = tested on: patients with Alagille syndrome (ALGS); assay: ASSERT pruritus responders: ObsRO sleep parameters
Excerpt: Treatment with concomitant medications for pruritus was permitted provided the patient was on a stable dosage for ≥4 weeks prior to enrollment that was maintained throughout the study.
Pruritus responders were defined as patients having a ≥1-point decrease in ObsRO scratching score from baseline to weeks 21-24).

CCCCC1(CCCC)CN(c2ccccc2)c2cc(SC)c(OCC(=O)N[C@@H](C(=O)N[C@@H](CC)C(=O)O)c3ccc(O)cc3)cc2S(=O)(=O)N1 [odevixibat, 1,1-dioxo-3,3-dibutyl-5-phenyl-7-methylthio-8-(N-{(R)-α-[N-((S)-1-carboxypropyl)carbamoyl]-4-hydroxybenzyl}carbamoylmethoxy)-2,3,4,5-tetrahydro-1,2,5-benzothiadiazepine]
TEAEs that led to study discontinuation [1]: No patient
patients reporting drug-related diarrhea ([1]; 6 of 52): 12%
patients reporting drug-related TEAEs ([1]; 15 of 52): 29%
patients reporting TEAEs ([1]; 43 of 52): 83%
Any TEAE ([1]; n=52): 43 (83) n (%)
Drug-related TEAE: Abdominal pain ([1]; n=52): 2 (4) n (%)
Drug-related TEAE: Abdominal pain upper ([1]; n=52): 2 (4) n (%)
Drug-related TEAE: Diarrhea ([1]; n=52): 6 (12) n (%)
Drug-related TEAE: Vomiting ([1]; n=52): 2 (4) n (%)
Drug-related TEAEs ([1]; n=52): 15 (29) n (%)
Drug-related serious TEAEs ([1]; n=52): 1 (2) n (%)
Serious TEAEs ([1]; n=52): 6 (12) n (%)
Severe TEAEs ([1]; n=52): 7 (14) n (%)
tolerability ([1]; up to 36 weeks): generally well tolerated
Serious TEAEs ([2]; 2/49 patients, interim cut-off): 4%
drug-related serious TEAEs or TEAEs leading to discontinuation or dose reduction ([2]; interim cut-off): No drug-related serious TEAEs or TEAEs leading to discontinuation or dose reduction
incidence of drug-related diarrhea ([2]; n=49, interim cut-off): 4%
incidence of treatment-emergent diarrhea ([2]; n=49, interim cut-off): 16%
tolerability ([2]; treatment for ≥24 weeks): well tolerated
mean scratching score ([3]; baseline, before odevixibat): 2.6
patients with a pruritus response (≥1 point reduction from baseline in scratching score) ([3]; last assessment on odevixibat, n=37/49): 76%
mean scratching score ([3]; weeks 1-4, 120 μg/kg/day): 1.7
mean scratching score ([3]; weeks 21-24): 1.0
mean scratching score ([3]; weeks 33-36): 0.6
solubility [4]: ~30 µg/mL (≈ 40.5 µM)
Days seeing blood due to scratching, Baseline Mean (SE) ([5]; n=28): 35 (6) %
Days sleeping with caregiver, Baseline Mean (SE) ([5]; n=28): 40 (9) %
Days with help falling asleep, Baseline Mean (SE) ([5]; n=28): 59 (8) %
Days with soothing, Baseline Mean (SE) ([5]; n=28): 68 (8) %
Daytime tiredness, Baseline Mean (SE) ([5]; n=28, scale 0-4): 2.2 (0.2)
Days seeing blood due to scratching, Mean (SE) Change From Baseline ([5]; to weeks 21-24): −30 (5) %
Days sleeping with caregiver, Mean (SE) Change From Baseline ([5]; to weeks 21-24): −34 (8) %
Days with help falling asleep, Mean (SE) Change From Baseline ([5]; to weeks 21-24): −44 (8) %
Days with soothing, Mean (SE) Change From Baseline ([5]; to weeks 21-24): −53 (8) %
Days seeing blood due to scratching, Week 24 Mean (SE) ([5]; weeks 21-24, n=27): 5 (2) %
Days sleeping with caregiver, Week 24 Mean (SE) ([5]; weeks 21-24, n=27): 8 (5) %
Days with help falling asleep, Week 24 Mean (SE) ([5]; weeks 21-24, n=27): 15 (6) %
Days with soothing, Week 24 Mean (SE) ([5]; weeks 21-24, n=27): 16 (5) %
Daytime tiredness, Week 24 Mean (SE) ([5]; weeks 21-24, n=28, scale 0-4): 1.0 (0.2)
